Assay results: patent US5849690A, “Anti-aggregatory peptides” (SmithKline Beecham Corporation, priority 1992, dated 1998)
Positions of bridges follow the written chain, without caps; N, C: chain ends. Non-standard residues stand in square brackets, D forms with d. Residues, ends and D or L forms follow the SMILES beside them.

molecular target: T1, Platelet rich plasma, PRP (Canis lupus familiaris, UniProt A0A8I3N5G5+A0A8I3PMU9); experiment: Inhibition of platelet aggregation, PRP/ADP; assay type: cell-based; conditions: dog platelet rich plasma, 2 μM ADP, peptide added 3 min. prior to agonist; read-out: Antiaggregatory Activity IC50, μM PRP/ADP
T1 sequence (A0A8I3N5G5 1-1047): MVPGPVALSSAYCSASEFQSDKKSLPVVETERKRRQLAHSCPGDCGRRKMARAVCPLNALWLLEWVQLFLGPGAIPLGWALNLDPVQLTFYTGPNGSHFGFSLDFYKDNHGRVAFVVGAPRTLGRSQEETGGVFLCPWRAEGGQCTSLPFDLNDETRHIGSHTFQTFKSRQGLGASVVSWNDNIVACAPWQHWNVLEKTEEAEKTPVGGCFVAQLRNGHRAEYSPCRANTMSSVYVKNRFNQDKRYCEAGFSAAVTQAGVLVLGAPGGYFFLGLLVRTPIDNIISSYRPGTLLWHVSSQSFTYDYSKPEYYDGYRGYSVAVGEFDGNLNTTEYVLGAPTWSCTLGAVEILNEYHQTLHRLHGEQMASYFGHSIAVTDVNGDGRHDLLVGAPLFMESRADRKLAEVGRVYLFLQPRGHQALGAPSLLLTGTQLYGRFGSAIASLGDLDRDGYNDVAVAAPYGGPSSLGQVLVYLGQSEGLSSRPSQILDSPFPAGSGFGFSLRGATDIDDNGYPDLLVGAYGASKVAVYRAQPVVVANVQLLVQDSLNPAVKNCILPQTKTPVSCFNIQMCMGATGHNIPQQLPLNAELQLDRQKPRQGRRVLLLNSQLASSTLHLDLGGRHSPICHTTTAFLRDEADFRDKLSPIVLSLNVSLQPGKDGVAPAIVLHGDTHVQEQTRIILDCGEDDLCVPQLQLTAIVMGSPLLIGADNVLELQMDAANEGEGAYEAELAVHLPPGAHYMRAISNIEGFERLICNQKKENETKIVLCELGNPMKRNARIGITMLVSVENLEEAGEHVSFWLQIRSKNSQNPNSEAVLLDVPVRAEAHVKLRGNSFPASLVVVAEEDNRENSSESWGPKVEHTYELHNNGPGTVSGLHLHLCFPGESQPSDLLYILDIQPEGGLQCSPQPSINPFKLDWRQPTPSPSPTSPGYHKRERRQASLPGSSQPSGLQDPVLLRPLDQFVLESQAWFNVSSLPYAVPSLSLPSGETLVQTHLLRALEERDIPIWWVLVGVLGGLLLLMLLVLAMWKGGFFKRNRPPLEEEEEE
T1 sequence (A0A8I3PMU9 1-919): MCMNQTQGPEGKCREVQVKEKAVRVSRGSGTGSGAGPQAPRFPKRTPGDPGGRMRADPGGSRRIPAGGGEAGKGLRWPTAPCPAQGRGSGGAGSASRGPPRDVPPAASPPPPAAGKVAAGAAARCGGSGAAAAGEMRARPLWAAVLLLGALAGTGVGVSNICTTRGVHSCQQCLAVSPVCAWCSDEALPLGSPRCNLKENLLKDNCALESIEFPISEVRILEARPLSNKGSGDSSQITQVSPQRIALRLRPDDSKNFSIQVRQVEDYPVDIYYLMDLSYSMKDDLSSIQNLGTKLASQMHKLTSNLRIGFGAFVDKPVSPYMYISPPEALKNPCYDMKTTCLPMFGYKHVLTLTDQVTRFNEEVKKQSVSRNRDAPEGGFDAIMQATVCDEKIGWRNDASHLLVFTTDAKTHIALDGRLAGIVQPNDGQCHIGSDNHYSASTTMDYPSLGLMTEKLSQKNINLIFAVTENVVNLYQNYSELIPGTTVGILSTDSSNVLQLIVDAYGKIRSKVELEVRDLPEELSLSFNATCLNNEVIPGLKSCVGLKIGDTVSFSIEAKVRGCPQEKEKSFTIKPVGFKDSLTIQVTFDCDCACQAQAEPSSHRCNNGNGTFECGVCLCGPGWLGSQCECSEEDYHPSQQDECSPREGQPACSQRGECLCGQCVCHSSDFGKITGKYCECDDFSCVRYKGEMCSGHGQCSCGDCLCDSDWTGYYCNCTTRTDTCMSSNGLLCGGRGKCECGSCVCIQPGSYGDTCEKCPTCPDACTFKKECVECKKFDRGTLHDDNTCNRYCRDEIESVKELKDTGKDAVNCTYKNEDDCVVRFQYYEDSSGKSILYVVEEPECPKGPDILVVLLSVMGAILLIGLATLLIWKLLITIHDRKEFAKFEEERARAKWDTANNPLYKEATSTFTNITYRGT
Protocol: Blood was collected (citrated to prevent coagulation) from, naive, adult mongrel dogs. Platelet rich plasma, PRP, was prepared by centrifugation at 150×g for 10 min. at room temperature. Washed platelets were prepared by centrifuging PRP at 800×g for 10 min. The cell pellet thus obtained was washed twice in Tyrode's buffer (pH 6.5) without Ca^2+ and resuspended in Tyrode's buffer (pH 7.4) containing 1.8 mM Ca^2+ at […]. Peptides were added 3 min. prior to the agonist in all assays of platelet aggregation. Final agonist concentrations were 0.1 unit/ml thrombin and 2 μM ADP (Sigma). Aggregation was monitored in a Chrono-Log Lumi-Aggregometer. Light transmittance 5 min. after addition of the agonist was used to calculate percent aggregation according to the formula % aggregation=[(90-CR).div.(90-10)]×100, where CR is the chart reading, 90 is the baseline, and 10 is the PRP blank reading. IC50 's were determined by plotting [% inhibition of aggregation] vs. [concentration of peptide]. Peptides were assayed at 200 μM and diluted sequentially by a factor of 2 to establish a suitable dose response curve.

| Molecule | IC50 [µM] |
| --- | --- |
| CC(=O)N[C@H]1CSSC[C@@H](C(N)=O)NC(=O)[C@H](CO)NC(=O)[C@H](CC(=O)O)NC(=O)CNC(=O)[C@H](CCCNC(=N)N)NC1=O [Example 3, N^α -Ac-Cyclo(S,S) Cys-Arg-Gly-Asp-Ser-Cys-NH2] (HELM PEPTIDE1{[ac].C.R.G.D.S.C.[am]}$PEPTIDE1,PEPTIDE1,2:R3-7:R3$$$V2.0) | 32.7 |
| CC(=O)N[C@H]1CSSC(C)(C)[C@@H](C(N)=O)NC(=O)[C@H](CO)NC(=O)[C@H](CC(=O)O)NC(=O)CNC(=O)[C@H](CCCNC(=N)N)N(C)C1=O [Example 5, N^α -Ac-Cyclo(S,S)Cys-MeArg-Gly-Asp-Ser-Pen-NH2] (HELM PEPTIDE1{[ac].C.[meR].G.D.S.[Pen].[am]}$PEPTIDE1,PEPTIDE1,2:R3-7:R3$$$V2.0) | 1.3 |
| CC(=O)N[C@H]1CSSC(C)(C)[C@@H](C(N)=O)NC(=O)[C@H](CC(=O)O)NC(=O)CNC(=O)[C@H](CCCNC(=N)N)NC1=O [Example 10, N^α -Ac-Cyclo(S,S)Cys-Arg-Gly-Asp-Pen-NH2] (HELM PEPTIDE1{[ac].C.R.G.D.[Pen].[am]}$PEPTIDE1,PEPTIDE1,2:R3-6:R3$$$V2.0) | 4.12 |
| CC(=O)N[C@H]1CSSC(C)(C)[C@H](C(N)=O)NC(=O)[C@H](CC(=O)O)NC(=O)CNC(=O)[C@H](CCCNC(=N)N)NC1=O [Example 11, N^α -Ac-Cyclo(S,S)Cys-Arg-Gly-Asp-D-Pen-NH2] (HELM PEPTIDE1{[ac].C.R.G.D.[CC(C)(S[*:3])[C@@H](N[*:1])C(=O)[*:2]].[am]}$PEPTIDE1,PEPTIDE1,2:R3-6:R3$$$V2.0) | 20.3 |
| CC(=O)N[C@H]1CSSC(C)(C)[C@@H](C(N)=O)NC(=O)[C@H](CC(=O)O)NC(=O)CNC(=O)[C@H](CCCCN)NC1=O [Example 12, N^α -Ac-Cyclo(S,S)Cys-Lys-Gly-Asp-Pen-NH2] (HELM PEPTIDE1{[ac].C.K.G.D.[Pen].[am]}$PEPTIDE1,PEPTIDE1,2:R3-6:R3$$$V2.0) | 55.3 |
| CC(=O)N[C@H]1CSSC(C)(C)[C@@H](C(N)=O)NC(=O)[C@H](CC(=O)O)NC(=O)CNC(=O)[C@H](CCCCNC(=N)N)NC1=O [Example 13, N^α -Ac-Cyclo(S,S)Cys-HArg-Gly-Asp-Pen-NH2] (HELM PEPTIDE1{[ac].C.[N=C(N)NCCCC[C@H](N[*:1])C(=O)[*:2]].G.D.[Pen].[am]}$PEPTIDE1,PEPTIDE1,2:R3-6:R3$$$V2.0) | 3.85 |
| CC(=O)N[C@H]1CSSC(C)(C)[C@@H](C(N)=O)NC(=O)[C@H](CC(=O)O)NC(=O)CNC(=O)[C@H](CCCNC(=N)N)N(C)C1=O [Example 14, N^α -Ac-Cyclo(S,S)Cys-MeArg-Gly-Asp-Pen-NH2] (HELM PEPTIDE1{[ac].C.[meR].G.D.[Pen].[am]}$PEPTIDE1,PEPTIDE1,2:R3-6:R3$$$V2.0) | 0.26 |
| CCNC(=O)[C@H](CO)NC(=O)[C@H](CC(=O)O)NC(=O)CNC(=O)[C@H](CCCN=C(N)N)NC(C)=O [Example 15, N^α -Ac-Arg-Gly-Asp-Ser-NHEt] (HELM PEPTIDE1{[ac].R.G.D.S.[CCN[*:1]]}$$$$V2.0) | > 200 |
| CCNC(=O)[C@H]1NC(=O)[C@H](CC(=O)O)NC(=O)CNC(=O)[C@H](CCCNC(=N)N)NC(=O)[C@@H](NC(C)=O)CSSC1(C)C [Example 16, N^α -Ac-Cyclo(S,S)Cys-Arg-Gly-Asp-Pen-NHEt] (HELM PEPTIDE1{[ac].C.R.G.D.[Pen].[CCN[*:1]]}$PEPTIDE1,PEPTIDE1,2:R3-6:R3$$$V2.0) | 9.5 |
| CC(=O)N[C@H]1CSSC(C)(C)[C@@H](C(N)=O)NC(=O)[C@H](CC(=O)O)NC(=O)CNC(=O)[C@@H](CCCNC(=N)N)NC1=O [Example 17, N^α -Ac-Cyclo(S,S)Cys-D-Arg-Gly-Asp-Pen-NH2] (HELM PEPTIDE1{[ac].C.[dR].G.D.[Pen].[am]}$PEPTIDE1,PEPTIDE1,2:R3-6:R3$$$V2.0) | 4.1 |
| CC(=O)N[C@H]1CSSC[C@@H](C(N)=O)NC(=O)[C@H](Cc2ccc(O)cc2)NC(=O)[C@H](CC(=O)O)NC(=O)CNC(=O)[C@H](CCCNC(=N)N)N(C)C1=O [Example 18, N^α -Ac-Cyclo(S,S)Cys-MeArg-Gly-Asp-Tyr-Cys-NH2] (HELM PEPTIDE1{[ac].C.[meR].G.D.Y.C.[am]}$PEPTIDE1,PEPTIDE1,2:R3-7:R3$$$V2.0) | 1.49 |
| CCN=C(NCC)NCCC[C@@H]1NC(=O)[C@@H](NC(C)=O)CSSC(C)(C)[C@@H](C(N)=O)NC(=O)[C@H](CC(=O)O)NC(=O)CNC1=O [Example 24, N^α -Ac-Cyclo(S,S)Cys-(Et2)Arg-Gly-Asp-Pen-NH2] (HELM PEPTIDE1{[ac].C.[CCN=C(NCC)NCCC[C@H](N[*:1])C(=O)[*:2]].G.D.[Pen].[am]}$PEPTIDE1,PEPTIDE1,2:R3-6:R3$$$V2.0) | 81.7 |
| CC(=O)N[C@@H](CCCN=C(N)N)C(=O)NCC(=O)N[C@@H](CC(=O)O)C(=O)N[C@H](C(N)=O)C(C)C [Example 31, N^α -Ac-Arg-Gly-Asp-Val-NH2] (Ac-RGDV-NH2) | 55.5 |
| CC(=O)N[C@@H](CCCN=C(N)N)C(=O)NCC(=O)N[C@@H](CC(=O)O)C(=O)NCCc1ccccc1 [Example 34, N^α -Ac-Arg-Gly-Asp-NH-CH -CH2 -C6 H5] | 75.9 |
| CC(=O)N[C@@H](CCCCNC(=N)N)C(=O)NCC(=O)N[C@@H](CC(=O)O)C(=O)N[C@@H](CO)C(N)=O [Example 36, Ac-HArg-Gly-Asp-Ser-NH2] (HELM PEPTIDE1{[ac].[N=C(N)NCCCC[C@H](N[*:1])C(=O)[*:2]].G.D.S.[am]}$$$$V2.0) | 68.2 |
| CN[C@@H](CCCNC(=N)N)C(=O)NCC(=O)N[C@@H](CC(=O)O)C(=O)N[C@@H](CO)C(N)=O [Example 37, N^α -MeArg-Gly-Asp-Ser-NH2] (HELM PEPTIDE1{[meR].G.D.S.[am]}$$$$V2.0) | 66.3 |
| CN(C=O)[C@@H](CCCNC(=N)N)C(=O)NCC(=O)N[C@@H](CC(=O)O)C(=O)N[C@@H](CO)C(N)=O [Example 38, N^α -Formyl-MeArg-Gly-Asp-Ser-NH2] (HELM PEPTIDE1{[O=C[*:2]].[meR].G.D.S.[am]}$$$$V2.0) | 6.9 |
| Ac-RRGDF-NH2 [Example 33, N^α -Ac-Arg-Arg-Gly-Asp-Phe-NH2] | 113 |
| Gly-MeArg-Gly-Asp-Ser-NH2 (RGDS; N-terminal Gly-Me; C-terminal amide; printed: Arg-Gly-Asp-Ser-) [Example 39] | 12 |
| N^α -Ac-Cyclo(S,S)Cys-MeArg-Gly-Asp-Cys-NH2 (Ac-C[MeArg]GDC-NH2; disulfide N-5) [Example 8] | 0.91 |
